According to PubChem BioAssay (NCI):
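Interpolation was linear, between the two tested concentrations surrounding the appropriate level; five concentrations were tested over 48 hours in 96-well plates. At the TGI there is no net growth.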

Experiments:
Assay in all cases: growth of human tumour cells (NCI), 48 h
U251 CNS = system: U251 CNS
HCC-2998 colon = system: HCC-2998 colon
786-0 renal = system: 786-0 renal
UACC-62 melanoma = system: UACC-62 melanoma
COLO 205 colon = system: COLO 205 colon
RXF 393 renal = system: RXF 393 renal
PC-3 prostate = system: PC-3 prostate
KM12 colon = system: KM12 colon
SF-295 CNS = system: SF-295 CNS
LOX IMVI melanoma = system: LOX IMVI melanoma
SW-620 colon = system: SW-620 colon
NCI/ADR-RES ovarian = system: NCI/ADR-RES ovarian

SMILES | TGI (U251 CNS) [µM] | TGI (HCC-2998 colon) [µM] | TGI (786-0 renal) [µM] | TGI (UACC-62 melanoma) [µM] | TGI (COLO 205 colon) [µM] | TGI (RXF 393 renal) [µM] | TGI (PC-3 prostate) [µM] | TGI (KM12 colon) [µM] | TGI (SF-295 CNS) [µM] | TGI (LOX IMVI melanoma) [µM] | TGI (SW-620 colon) [µM] | TGI (NCI/ADR-RES ovarian) [µM]
COc1cc(-c2nc(SC)nc3c2CCc2ccccc2-3)cc(OC)c1OC | > 100 | > 100 | > 100 | > 100 | > 100 | > 100 | > 100 | > 100 | > 100 | > 100 | > 100 | > 100
CC(C)(CO)CNc1cc(Cl)nc(N)n1 | > 100 | > 100 | > 100 | > 100 | > 100 | > 100 | > 100 | > 100 | > 100 | > 100 | > 100 | > 100
O=C(O)c1cccc(S(=O)(=O)NN2C(=O)CSC2c2c(O)ccc3ccccc23)c1 (stereo not drawn) | > 100 | > 100 | > 100 | 66.4 | > 100 | 89.1 | > 100 | > 100 | 94.9 | 60 | 65.7 | 76.9
O=C(O)C1CSC2(CCCN(Cc3ccccc3)C2)N1 (stereo not drawn) | > 100 | > 100 | > 100 | > 100 | > 100 | > 100 | > 100 | > 100 | > 100 | > 100 | > 100 | > 100
OCC(S)CS.[Bi] (stereo not drawn) | 40.2 | 27.5 | 39.3 | 38.5 | 30 | 26.2 | 27.3 | 46.2 | > 100 | > 100 | > 100 | > 100
CC1CN=C(c2ccc(CN3CCC(CCCC4CCN(Cc5ccc(C6=NCC(C)N6)cc5)CC4)CC3)cc2)N1 (stereo not drawn) | > 100 | 28.7 | > 100 | > 100 | 33 | > 100 | > 100 | 40 | > 100 | > 100 | > 100 | > 100
O=c1onc(Nc2ccccc2)n1-c1ccccc1 | > 100 | > 100 | > 100 | > 100 | > 100 | > 100 | > 100 | > 100 | > 100 | > 100 | > 100 | > 100
Cc1cc(OCc2nnc3n2N=C(c2cc(F)c(Cl)cc2Cl)/C(=C/c2ccc(-c4ccc(Cl)cc4)o2)S3)ccc1Cl | > 50 | > 50 | > 50 | > 50 | > 50 | > 50 | > 50 | > 50 | > 50 | > 50 | > 50 | > 50
CCCCCCCCCCOc1ccc(N=Nc2nnc(-c3ccc(OCCCCC)cc3)s2)cc1 | > 100 | > 100 | > 100 | > 100 | > 100 | > 100 | > 100 | > 100 | > 100 | > 100 | > 100 | > 100
